This is an account of results in patent US20040248953A1, “3-Arylsulfanyl and 3-heteroarylsulfanyl substituted benzo[b]thiophenes as therapeutic agents” (priority 2003, published 2004).

T1 sequence (P48736 whole entry, species assumed): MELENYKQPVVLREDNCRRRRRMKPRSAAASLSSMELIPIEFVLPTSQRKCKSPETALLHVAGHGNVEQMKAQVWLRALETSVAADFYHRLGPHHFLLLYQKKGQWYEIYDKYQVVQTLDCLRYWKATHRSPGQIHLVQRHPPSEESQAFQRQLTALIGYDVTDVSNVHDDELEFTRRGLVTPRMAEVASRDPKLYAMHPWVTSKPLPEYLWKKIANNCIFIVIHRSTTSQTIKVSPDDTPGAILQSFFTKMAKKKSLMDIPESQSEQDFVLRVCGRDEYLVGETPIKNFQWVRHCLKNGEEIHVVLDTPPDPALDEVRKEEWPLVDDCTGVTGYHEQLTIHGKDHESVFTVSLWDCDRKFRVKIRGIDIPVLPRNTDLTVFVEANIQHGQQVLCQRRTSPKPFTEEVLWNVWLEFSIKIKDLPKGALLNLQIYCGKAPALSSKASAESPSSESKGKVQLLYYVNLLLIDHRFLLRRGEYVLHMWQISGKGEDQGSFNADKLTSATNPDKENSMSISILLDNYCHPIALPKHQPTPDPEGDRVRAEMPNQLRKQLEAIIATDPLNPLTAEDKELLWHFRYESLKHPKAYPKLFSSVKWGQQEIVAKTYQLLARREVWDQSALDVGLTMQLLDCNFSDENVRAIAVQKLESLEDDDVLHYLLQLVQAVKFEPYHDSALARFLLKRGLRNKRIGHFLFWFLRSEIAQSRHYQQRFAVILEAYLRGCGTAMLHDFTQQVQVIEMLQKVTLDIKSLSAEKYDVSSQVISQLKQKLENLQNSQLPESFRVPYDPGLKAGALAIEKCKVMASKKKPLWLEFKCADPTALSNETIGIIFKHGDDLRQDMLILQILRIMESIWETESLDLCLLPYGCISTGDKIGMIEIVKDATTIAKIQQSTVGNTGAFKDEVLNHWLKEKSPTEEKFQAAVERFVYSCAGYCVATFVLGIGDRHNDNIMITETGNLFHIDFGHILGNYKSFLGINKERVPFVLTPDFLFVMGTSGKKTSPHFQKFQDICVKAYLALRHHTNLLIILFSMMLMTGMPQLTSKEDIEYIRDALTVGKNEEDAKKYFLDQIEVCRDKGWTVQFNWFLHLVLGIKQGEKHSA
T1 sequence (Q8WYR1 whole entry partner, species assumed): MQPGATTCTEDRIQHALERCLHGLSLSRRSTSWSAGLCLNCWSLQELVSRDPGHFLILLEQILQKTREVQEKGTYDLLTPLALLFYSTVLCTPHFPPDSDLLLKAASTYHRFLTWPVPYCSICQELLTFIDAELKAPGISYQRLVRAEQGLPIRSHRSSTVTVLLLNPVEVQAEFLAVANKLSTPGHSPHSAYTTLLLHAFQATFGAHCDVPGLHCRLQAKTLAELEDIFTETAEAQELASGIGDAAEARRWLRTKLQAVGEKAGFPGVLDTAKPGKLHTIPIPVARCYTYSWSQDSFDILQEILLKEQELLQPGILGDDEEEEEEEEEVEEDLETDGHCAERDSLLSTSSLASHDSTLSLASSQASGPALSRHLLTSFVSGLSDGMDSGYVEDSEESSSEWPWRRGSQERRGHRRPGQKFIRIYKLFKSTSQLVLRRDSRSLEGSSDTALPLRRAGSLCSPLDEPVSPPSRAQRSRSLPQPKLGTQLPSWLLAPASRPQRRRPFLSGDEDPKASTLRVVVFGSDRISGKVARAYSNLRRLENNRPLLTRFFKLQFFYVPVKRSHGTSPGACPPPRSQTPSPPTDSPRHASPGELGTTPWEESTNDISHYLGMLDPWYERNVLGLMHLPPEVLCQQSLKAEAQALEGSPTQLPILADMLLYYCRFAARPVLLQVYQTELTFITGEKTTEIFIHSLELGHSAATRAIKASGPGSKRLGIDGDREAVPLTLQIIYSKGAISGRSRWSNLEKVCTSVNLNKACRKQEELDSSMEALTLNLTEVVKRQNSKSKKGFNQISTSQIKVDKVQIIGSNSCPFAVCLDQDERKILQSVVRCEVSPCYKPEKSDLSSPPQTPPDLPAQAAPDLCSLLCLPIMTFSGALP

This assay has as its target T1, PI3Kγ (Homo sapiens, UniProt P48736).
T1 construct: HA; made in house; host or cells: Spodoptera frugiperda (Sf9) cells, baculovirus coinfection
The assay can be described thus: PI3Kγ in vitro kinase assay (32P-ATP, PIP2 lipid micelles, filter plate). In kind it is biochemical. The settings on record: purified recombinant p101/p110γ protein with G protein β1/γ2 subunits; 20 μM ATP; 25 μM PIP2; 20 minutes at room temperature. As for the experimental part: Spodtera frugiperda cells, grown in ESF921 media, were coinfected with baculovirus expressing a glu-tagged p101 and baculovirus expressing an HA-tagged p110γ, at a 3:1 ratio of p101 baculovirus to p110γ baculovirus. Sf9 cells were grown to 1×10^7 total cells/mL in 10 L bioreactors and harvested 48-72 hours post infection. Samples of infected cells were then tested for expression of p101/p110γ PI3 kinase by immunoprecipitation and Western Blot analysis methods (see below). To purify PI3Kγ, 4 volumes of room temperature hypotonic lysis buffer (1 mM MgCl2, 1 mM DTT, 5 mM EGTA, 1 mM Pefabloc, 0.5 μM aprotinin, 5 μM leupeptin, 2 μM pepstatin, 5 μM E64, pH 8) per gram of cell paste, was poured onto frozen cell pellets with stirring, then lysed in a nitrogen “bomb” at 400 psi (599HC […], Parr Instrument Co, Moline, Ill.). NaCl was added to 150 mM, and sodium cholate was added to 1% and mixed for another 45 minutes. The lysates were clarified by centrifugation for 25 minutes at 14,000 rpm. The lysates were then loaded over anti-glu-linked Protein-G Sepaharose beads (Covance Research Products, Richmond, Calif.) using 20 mL resin/50 g cell paste. The column was washed with 15 volumes of wash buffer (1 mM DTT, 0.2 mM EGTA, 1 mM Pefabloc, 0.5 μM aprotinin, 5 μM leupeptin, 2 μM pepstatin, 5 μM E64, 150 mM NaCl, 1% sodium cholate, pH 8). PI3Kγ was eluted with 6 column volumes of wash buffer that contain 100 μg/mL of a peptide that competes for binding of the glu tag. The column fractions with the eluted protein (determined by taking OD280 readings) were collected and dialyzed in 0.2 mM EGTA, 1 mM DTT, 1 mM Pefabloc, 5 μM leupeptin, 0.5% sodium cholate, 150 mM NaCl, and 50% glycerol, pH 8. The fractions were stored at -80° C. until further use. Spodtera frugiperda cells were coinfected with baculovirus expressing a glu-tagged G protein β1 and baculovirus expressing a […], at a 1:1 ratio of glu-tagged G protein β1 baculovirus to G protein β2 baculovirus. Sf9 cells are grown in 10 L bioreactors and harvested 48-72 hours post infection. Samples of infected cells were tested for G protein β1/β2 expression by Western Blot analysis, as described below. Cell lysates were homogenized and loaded onto a column of glu-tagged beads as in Biological Example 1 and competed off the column with a glu peptide and processed as described in Biological Example 1. The inhibitory properties of the compounds in Table 1 were assayed in an in vitro PI3K assay. In a 96-well polypropylene plate, each well was spotted with […] of 50 times the desired final concentration of compound in DMSO. Purified recombinant p101/p110γ protein (0.03 μg; 2.7 nM) and G protein β1/γ2 subunits (0.09 μg; 57.7 nM) for each reaction was combined in the assay buffer (30 mM HEPES, 100 mM NaCl, 1 mM EGTA, and 1 mM DTT). ATP and [γ-^32P-ATP] (0.09 μCi) were added to this mixture so that the final ATP concentration in the reaction was 20 μM. Lipid micelles were formed by sonicating phosphatidylinositol4,5-diphosphate (PIP2), phosphatidylethanolamine (PE), and Na-cholate in the assay buffer for 10 minutes, adding MgCl2 and incubating on ice for 20 minutes, for final concentrations of 25 μM PIP2, 300 μM PE, 0.02% Na-cholate, and 10 mM MgCl2 in the reaction. The reactions were started by adding equal volumes lipid and enzyme mixture in a total volume of 50 μL, allowed to run for 20 minutes at room temperature, and stopped with 100 μL 75 mM H3PO4. The lipid product was transferred to a glass fiber filter plate and washed with 75 mM H3PO4 several times. The presence of radioactive lipid product (PIP3) was measured by adding Wallac Optiphase mix to each well and counting in a Wallac 1450 Trilux plate reader (PerkinElmer Life Sciences Inc., Boston, Mass. 02118). The IC50 for each compound tested is reported in μM in Table 1: […]
Turning to `COc1ccc(OC)c(Sc2c(C(=O)Nc3nnn[nH]3)sc3ccc(OC)cc23)c1` [Example 24, 3-(2,5-dimethoxy-phenylsulfanyl)-5-methoxy-benzo[b]thiophene-2-carboxylic acid(1H-tetrazol-5-yl)-amide], the IC50 (as a rule, the concentration that gives 50% inhibition) is 1220 nM.
`COc1ccc2sc(C(=O)Nc3nnn[nH]3)c(SCCc3ccccc3)c2c1` [Example 26, 5-methoxy-3-phenethylsulfanyl-benzo[b]thiophene-2-carboxylic acid(1H-tetrazol-5-yl)-amide]: the IC50 turned out to be 1600 nM.
As for `COc1ccc2sc(C(=O)Nc3nnn[nH]3)c(Sc3ccc4c(c3)OCO4)c2c1` [Example 27, 3-(benzo[1,3]dioxol-5-ylsulfanyl)-5-methoxy-benzo[b]thiophene-2-carboxylic acid(1H-tetrazol-5-yl)-amide], the figure is 1690 nM; as for `COc1cc2sc(C(=O)Nc3nnn[nH]3)c(Sc3ccc(O)cc3)c2cc1OC` [Example 28, 3-(4-hydroxy-phenylsulfanyl)-5,6-dimethoxy-benzo[b]thiophene-2-carboxylic acid(1H-tetrazol-5-yl)-amide], 1840 nM; as for `COc1cc2sc(C(=O)Nc3nnn[nH]3)c(Sc3ccoc3C)c2cc1OC` [Example 29, 5,6-dimethoxy-3-(2-methyl-furan-3-ylsulfanyl)-benzo[b]thiophene-2-carboxylic acid(1H-tetrazol-5-yl)-amide], 2160 nM.
For `COc1cc2c(Sc3ccc(O)cc3)c(C(=O)Nc3nnn[nH]3)sc2cc1C` [Example 30, 3-(4-Hydroxy-phenylsulfanyl)-5-methoxy-6-methyl-benzo[b]thiophene-2-carboxylic acid(1H-tetrazol-5-yl)-amide], the IC50 stood at 625 nM.
On to `COC(=O)Cc1ccc(Sc2c(C(=O)Nc3nnn[nH]3)sc3cc(C)c(OC)cc23)cc1` [Example 31, {4-[5-Methoxy-6-methyl-2-(1H-tetrazol-5-ylcarbamoyl)-benzo[b]thiophen-3-ylsulfanyl]-phenyl}-acetic acid methyl ester], for which the concentration for half-maximal inhibition (IC50) stood at 3960 nM.
With `COC(=O)CCc1ccc(Sc2c(C(=O)Nc3nnn[nH]3)sc3cc(C)c(OC)cc23)cc1` [Example 32, 3-{4-[5-Methoxy-6-methyl-2-(1H-tetrazol-5-ylcarbamoyl)-benzo[b]thiophen-3-ylsulfanyl]-phenyl}-propionic acid methyl ester], the IC50 was found to be 4530 nM.
For `COc1cccc(Sc2c(C(=O)Nc3nnn[nH]3)sc3cc(C)c(OC)cc23)c1` [Example 34, 5-Methoxy-3-(3-methoxy-phenylsulfanyl)-6-methyl-benzo[b]thiophene-2-carboxylic acid(1H-tetrazol-5-yl)-amide], the IC50 stood at 207 nM.
Consider `COc1cc2c(Sc3ccc(C(C)C)cc3)c(C(=O)Nc3nnn[nH]3)sc2cc1C` [Example 35, 3-(4-Isopropyl-phenylsulfanyl)-5-methoxy-6-methyl-benzo[b]thiophene-2-carboxylic acid(1H-tetrazol-5-yl)-amide], for which the concentration for half-maximal inhibition (IC50) is 370 nM.
As for `COc1cc2sc(C(=O)Nc3nnn[nH]3)c(Sc3cccc(O)c3)c2cc1OC` [Example 36, 3-(3-Hydroxy-phenylsulfanyl)-5,6-dimethoxy-benzo[b]thiophenes-2-carboxylic acid(1H-tetrazol-5-yl)-amide], the IC50 was determined as 1880 nM.
Take `COc1ccc(Sc2c(C(=O)Nc3nnn[nH]3)sc3cc(C)c(OC)cc23)cc1` [Example 37, 5-Methoxy-3-(4-methoxy-phenylsulfanyl)-6-methyl-benzo[b]thiophene-2-carboxylic acid(1H-tetrazol-5-yl)-amide]: the IC50 turned out to be 808 nM.
On to `COc1cc2sc(C(=O)Nc3nnn[nH]3)c(Sc3ccc(O)cc3)c2cc1C` [Example 38, 3-(4-Hydroxy-phenylsulfanyl)-6-methoxy-5-methyl-benzo[b]thiophene-2-carboxylic acid(1H-tetrazol-5-yl)-amide], for which the IC50 came out at 885 nM.
Turning to `COc1cc2sc(C(=O)Nc3nnn[nH]3)c(Sc3cccc(O)c3)c2cc1C` [Example 39, 3-(3-Hydroxy-phenylsulfanyl)-6-methoxy-5-methyl-benzo[b]thiophene-2-carboxylic acid(1H-tetrazol-5-yl)-amide], the half-inhibitory concentration (IC50) was 980 nM.
As for `COC(=O)Cc1ccc(Sc2c(C(=O)Nc3nnn[nH]3)sc3cc(OC)c(C)cc23)cc1` [Example 40, {4-[6-Methoxy-5-methyl-2-(1H-tetrazol-5-ylcarbamoyl)-benzo[b]thiophen-3-ylsulfanyl]-phenyl}-acetic acid methyl ester], the concentration for half-maximal inhibition (IC50) came to 1260 nM.
On to `COC(=O)CCc1ccc(Sc2c(C(=O)Nc3nnn[nH]3)sc3cc(OC)c(C)cc23)cc1` [Example 41, 3-{4-[6-Methoxy-5-methyl-2-(1H-tetrazol-5-ylcarbamoyl)-benzo[b]thiophen-3-ylsulfanyl]-phenyl}-propionic acid methyl ester], for which the half-maximal inhibitory concentration (IC50) was determined as 4080 nM.
In the case of `COc1cc2sc(C(=O)Nc3nnn[nH]3)c(Sc3cccc(C(F)(F)F)c3)c2cc1C` [Example 42, 6-Methoxy-5-methyl-3-(3-trifluoromethyl-phenylsulfanyl)-benzo[b]thiophene-2-carboxylic acid(1H-tetrazol-5-yl)-amide], the IC50 turned out to be 2170 nM.
Regarding `COc1cc2sc(C(=O)Nc3nnn[nH]3)c(SC(c3ccccc3)C(C)N(C)C(C)=O)c2cc1C` (stereo not drawn) [Example 44, 3-[2-(Acetyl-methyl-amino)-1-phenyl-propylsulfanyl]-6-methoxy-5-methyl-benzo[b]thiophene-2-carboxylic acid(1H-tetrazol-5-yl)-amide], the IC50 was determined as 2780 nM.
As for `COc1cc2sc(C(=O)Nc3nnn[nH]3)c(Sc3cccc(Cl)c3)c2cc1C` [Example 45, 3-(3-Chloro-phenylsulfanyl)-6-methoxy-5-methyl-benzo[b]thiophene-2-carboxylic acid(1H-tetrazol-5-yl)-amide], the half-inhibitory concentration (IC50) amounted to 465 nM.
For the compound `COc1cccc(Sc2c(C(=O)Nc3nnn[nH]3)sc3cc(OC)c(C)cc23)c1` [Example 46, 6-Methoxy-3-(3-methoxy-phenylsulfanyl)-5-methyl-benzo[b]thiophene-2-carboxylic acid(1H-tetrazol-5-yl)-amide], the 50% inhibitory concentration (IC50) was found to be 600 nM.
As for `COc1cc2sc(C(=O)Nc3nnn[nH]3)c(Sc3ccc(C(C)C)cc3)c2cc1C` [Example 47, 3-(4-Isopropyl-phenylsulfanyl)-6-methoxy-5-methyl-benzo[b]thiophene-2-carboxylic acid(1H-tetrazol-5-yl)-amide], the IC50 came to 3130 nM.
On to `COC(=O)Cc1ccc(Sc2c(C(=O)Nc3nnn[nH]3)sc3cc(OC)c(OC)cc23)cc1` [Example 49, {4-[5,6-Dimethoxy-2-(1H-tetrazol-5-ylcarbamoyl)-benzo[b]thiophen-3-ylsulfanyl]-phenyl}-acetic acid methyl ester], for which the IC50 stood at 1290 nM.
As for `COc1cc2sc(C(=O)Nc3nnn[nH]3)c(Sc3cccc(C(F)(F)F)c3)c2cc1OC` [Example 50, 5,6-Dimethoxy-3-(3-trifluoromethyl-phenylsulfanyl)-benzo[b]thiophene-2-carboxylic acid(1H-tetrazol-5-yl)-amide], the IC50 stood at 3380 nM.
With `COc1cccc(Sc2c(C(=O)Nc3nnn[nH]3)sc3cc(OC)c(OC)cc23)c1` [Example 51, 5,6-Dimethoxy-3-(3-methoxy-phenylsulfanyl)-benzo[b]thiophene-2-carboxylic acid(1H-tetrazol-5-yl)-amide], the half-inhibitory concentration (IC50) came out at 438 nM.
